{
  "source": "patent US5792467A",
  "about": "“Repellent compositions containing aromatic aldehydes” (Proguard, Inc., priority 1996, dated 1998)",
  "key": {"[1]": {"system": "Western Flower Thrips (Thysanoptera)", "experiment": "Repellency to Western Flower Thrips on alfalfa inflorescence", "format": "in vivo", "conditions": "2% coniferyl aldehyde, 1% Tween 80", "from_the_text": "Western Flower Thrips (Thysanoptera) were collected in the field on infested alfalfa (Medicago sativa). Alfalfa inflorescence were cut then dipped in either a coniferyl aldehyde formulation (2% coniferyl aldehyde, 1% Tween 80) or a water control, then were placed in an experimental arena (approximately 9 cm in diameter by 6 centimeter in height) on a Whatman filter paper disk covering the floor of the arena. Approximately fifty (50) to sixty (60) insects were aspirated into the experimental arena which was then covered with a transparent lid. […] Repellency was determined by the relative number of individuals who successfully maintained feeding and colonization on the inflorescence over time."}, "[2]": {"conditions": "33% DEET; cited from earlier work"}, "[3]": {"conditions": "25° C.; cited from earlier work"}, "[4]": {"conditions": "cited from earlier work"}, "[5]": {"system": "Aedes Aegypsi (yellow fever mosquito)", "experiment": "Median Effective Dose to repel Aedes aegypti, mosquito blood feeder", "format": "in vivo", "conditions": "Bandruche membrane, 37°, acetone formulation", "protocol": "Median Effective Dose (ED50) is defined as the amount of chemical required to repel 50% of a target pest. […] The test system used was a mosquito blood feeder, which includes a constant temperature water circulator to warm the blood in the feeder, and the test cage. The blood was maintained at 37°. The blood feeder has five circular blood reservoirs, each of which is filled with outdated blood obtained from the Walter Reed Army Medical Center and certified safe according to Blood Bank testing procedures. The blood was replenished with adenosine triphosphate (ATP), without which the mosquitoes will not feed freely. The blood-filledreservoirs were covered with a Bandruche membrane (a standard membrane barrier). […] DEET was used as a positive control in a similar manner. A negative control formulation (water only) also was tested. The mosquitoes were given access to the blood reservoirs on a \"free feeding\" basis by means of a sliding door in the bottom of the test cage."}, "[6]": {"system": "patients sensitive to 2% cinnamaldehyde", "conditions": "human, in vivo; cited from earlier work"}, "human subjects [7]": {"system": "human subjects", "conditions": "20% in diethylphthalate, 100 human subjects; cited from earlier work"}, "rats": {"system": "rats", "conditions": "rat, in vivo; cited from earlier work"}, "[8]": {"system": "yellow fever mosquito (Aedes aegypti (L))", "experiment": "Direct skin application, protection time against yellow fever mosquito", "format": "in vivo", "conditions": "1 ml 100% HCA on forearm", "protocol": "(§1) A glove was worn to protect the untreated hand while the treated forearm was exposed in a cage containing a high number (2,000-4,000) of unfed mosquitoes for 3 minutes at intervals of approximately 30 minutes until two bites were received (two bites in one test period or one bite in each of two consecutive test periods). The time interval between application and when two bites were received was defined as the \"protection time.\" The repellent classes based on protection time (minutes) are listed below: […]"}, "yellow fever mosquito": {"system": "yellow fever mosquito", "experiment": "Application to clothing, treated stocking against yellow fever mosquito", "format": "in vivo, Aedes aegypti", "conditions": "cotton stocking, 3.3 g/ft^2", "protocol": "HCA also was evaluated on treated cloth against the yellow fever mosquito. In these tests, women's mercerized-cotton stockings were used. […] The stocking was spread on a rack to dry and then hung indoors on a line. The first tests were done 24 hours after treatment. The treated stocking was drawn over the arm, with the treated portion midway on the forearm. The untreated hand was protected with a glove and the stocking-covered arm was exposed for one minute in a testcage. If 5 bites were received, the treatment was considered ineffective. If less than 5 bites were received; the exposures were continued daily until the 14th day and at weekly or biweekly intervals thereafter."}, "[9]": {"system": "eczema and dermatitis patients", "conditions": "human, in vivo; cited from earlier work"}, "human subjects [10]": {"system": "human subjects", "conditions": "12% in petrolatum, 48 hour closed patch; cited from earlier work"}, "[11]": {"conditions": "cited from earlier work", "remark": "listed apart in the source"}, "[12]": {"system": "malaria mosquito (Anopheles quadrimaculatus Say)", "experiment": "Direct skin application, protection time against malaria mosquito", "format": "in vivo", "conditions": "1 ml 100% HCA on forearm", "protocol": "as §1"}, "human": {"system": "human", "conditions": "cited from earlier work"}, "[13]": {"system": "grape phylloxera (Daktulosphaira vitifoliae Fitch)", "experiment": "Treatment of grapevine leaves for control of root forms of grape phylloxera", "format": "in vivo", "conditions": "for Number of Phylloxera on 6 root sections, Eggs: water 52; for Number of Phylloxera on 6 root sections, 1st instar / Number of Phylloxera on 6 root sections, 2nd instar / Number of Phylloxera on 6 root sections, 3rd instar: water 7; for Number of Phylloxera on 6 root sections, 4th instar: water 13; for Number of Phylloxera on 6 root sections, Adults: water 16", "protocol": "The root form of grape phylloxera (Daktulosphaira vitifoliae Fitch) is arguably the most devastating grape insect world wide. In this experiment, cinnamic aldehyde formulated with 1% Tween 80 was tested for ability to control phylloxera. One year old potted V. vinifera cultivar merlot plants were used that had been obtained from Foundation Plant Material Service, University of California, Davis. The plants were potted in 10 cm diameter ports and were infested with phylloxera 5 weeks prior to treatment. At the time of spraying, plant pots were placed in a plastic bag so that chemical runoff from the leaf sprays would not drip into the soil. Spray was applied to runoff with a household 1 liter-capacity plastic spray bottle. Plants were allowed to air dry outside and then replaced in the greenhouse. At intervals thereafter, the roots were separated from the potting mix and total phylloxera population estimated.\nRoots from plants at 5 weeks post-treatment were excised and 6 root sections, about 3 mm diameter by 4 cm length were cleaned of infestations and used in a bioassay. For this bioassay, root sections were inoculated with 20 eggs and the roots maintained as the colonies were maintained. After 25 days, the number of individuals of each age class were counted."}},
  "note": "Entries after “also recorded” stand apart in the source; their conditions may differ. Like-named read-outs stand apart in the source and are kept apart here.",
  "data": [
    {"compound": "COc1cc(/C=C/C=O)ccc1O", "note": "[Coniferyl Aldehyde, coniferyl aldehyde]", "values": [
      {"measurement": "Number of insects on inflorescence (colonization and feeding)", "setting": "[1]; about 50-60 insects, 30 min, water control 22(alive)", "result": "2(dead)"},
      {"measurement": "Description of insect behavior", "setting": "[1]; control tranquil, normal flight, feeding", "result": "Irritated by treatment; also recorded: extreme agitation; also recorded: frequent flying. No"},
      {"measurement": "Length of insect residence time on inflorescence", "setting": "[1]; max, water control 30 minutes", "result": "≤ 15", "unit": "s"}
    ]},
    {"compound": "CCN(CC)C(=O)c1cccc(C)c1", "note": "[DEET, N,N-diethyl-1,3-methylbenzamide]", "values": [
      {"measurement": "duration of protection", "setting": "[2]", "result": "10 to 14", "unit": "h"},
      {"measurement": "vapor pressure", "setting": "[3]", "result": "167×10^-5 mm Hg"},
      {"measurement": "adverse effects", "setting": "[4]; repeated use on skin in high concentrations", "result": "can cause allergic and toxic effects"},
      {"measurement": "Median Effective Dose (ED50)", "setting": "[5]", "result": 0.0124, "unit": "mg/cm^2"}
    ]},
    {"compound": "CCCCCCC(C=O)=Cc1ccccc1", "note": "[HCA, 2-(phenylmethylene) octanal]", "values": [
      {"measurement": "patients found to be sensitive", "setting": "[6]", "result": "none"},
      {"measurement": "positive reactions, repeated insult patch test", "setting": "human subjects [7]", "result": "no positive reactions"},
      {"measurement": "oral LD50", "setting": "rats", "result": 3100, "unit": "mg/kg"},
      {"measurement": "protection time", "setting": "[8]", "result": "121 to 180", "unit": "min"},
      {"measurement": "repellent class based on protection time", "setting": "[8]; USDA rating scale", "result": "3 (121-180)"},
      {"measurement": "duration of effectiveness on treated cloth", "setting": "yellow fever mosquito", "result": "more than 10 days"},
      {"measurement": "protection time grade on treated cloth", "setting": "yellow fever mosquito", "result": "4 (effective for more than 10 days)"},
      {"measurement": "patch test positive results out of 100", "setting": "[9]", "result": 0},
      {"measurement": "Median Effective Dose (ED50)", "setting": "[5]", "result": 0.0031, "unit": "mg/cm^2"},
      {"measurement": "irritation", "setting": "human subjects [10]", "result": "no irritation"},
      {"measurement": "dermal LD50", "setting": "[11]", "result": "greater than 3 g/kg"},
      {"measurement": "protection time", "setting": "[12]", "result": "31 to 60", "unit": "min"},
      {"measurement": "repellent class based on protection time", "setting": "[12]; USDA rating scale", "result": "2 (31-60)"},
      {"measurement": "human maximization test result", "setting": "human; in vivo", "result": "negative"}
    ]},
    {"compound": "O=C/C=C/c1ccccc1", "note": "[cinnamic aldehyde]", "values": [
      {"measurement": "Number of Phylloxera on 6 root sections, Eggs", "setting": "[13]; 300 ppm, 1% Tween 80, roots 5 weeks post-treatment, 25 days", "result": 16},
      {"measurement": "Number of Phylloxera on 6 root sections, 1st instar", "setting": "[13]; 300 ppm", "result": 0},
      {"measurement": "Number of Phylloxera on 6 root sections, 2nd instar", "setting": "[13]; 300 ppm", "result": 6},
      {"measurement": "Number of Phylloxera on 6 root sections, 3rd instar", "setting": "[13]; 300 ppm", "result": 5},
      {"measurement": "Number of Phylloxera on 6 root sections, 4th instar", "setting": "[13]; 300 ppm", "result": 0},
      {"measurement": "Number of Phylloxera on 6 root sections, Adults", "setting": "[13]; 300 ppm", "result": 4},
      {"measurement": "Number of Phylloxera on 6 root sections, 1st instar", "setting": "[13]; 1000 ppm", "result": 0},
      {"measurement": "Number of Phylloxera on 6 root sections, 2nd instar", "setting": "[13]; 1000 ppm", "result": 1},
      {"measurement": "Number of Phylloxera on 6 root sections, 3rd instar", "setting": "[13]; 1000 ppm", "result": 4},
      {"measurement": "Number of Phylloxera on 6 root sections, 4th instar", "setting": "[13]; 1000 ppm", "result": 2},
      {"measurement": "Number of Phylloxera on 6 root sections, Adults", "setting": "[13]; 1000 ppm", "result": 1},
      {"measurement": "Number of Phylloxera on 6 root sections, Eggs", "setting": "[13]; 1000 ppm", "result": 2},
      {"measurement": "Number of Phylloxera on 6 root sections, 1st instar", "setting": "[13]; 3000 ppm", "result": 0},
      {"measurement": "Number of Phylloxera on 6 root sections, 2nd instar", "setting": "[13]; 3000 ppm", "result": 2},
      {"measurement": "Number of Phylloxera on 6 root sections, 3rd instar", "setting": "[13]; 3000 ppm", "result": 1},
      {"measurement": "Number of Phylloxera on 6 root sections, 4th instar", "setting": "[13]; 3000 ppm", "result": 1},
      {"measurement": "Number of Phylloxera on 6 root sections, Adults", "setting": "[13]; 3000 ppm", "result": 0},
      {"measurement": "Number of Phylloxera on 6 root sections, Eggs", "setting": "[13]; 3000 ppm", "result": 0},
      {"measurement": "Number of Phylloxera on 6 root sections, 1st instar", "setting": "[13]; 10,000 ppm", "result": 0},
      {"measurement": "Number of Phylloxera on 6 root sections, 2nd instar", "setting": "[13]; 10,000 ppm", "result": 2},
      {"measurement": "Number of Phylloxera on 6 root sections, 3rd instar", "setting": "[13]; 10,000 ppm", "result": 0},
      {"measurement": "Number of Phylloxera on 6 root sections, 4th instar", "setting": "[13]; 10,000 ppm", "result": 0},
      {"measurement": "Number of Phylloxera on 6 root sections, Adults", "setting": "[13]; 10,000 ppm", "result": 0},
      {"measurement": "Number of Phylloxera on 6 root sections, Eggs", "setting": "[13]; 10,000 ppm", "result": 0},
      {"measurement": "duration of resistance of excised roots to phylloxera reinfestation", "setting": "[13]; after foliage treatment", "result": "at least 5 weeks"},
      {"measurement": "feeding sites after foliage treatment", "setting": "[13]; foliage of whole plants treated", "result": "Vacant feeding sites were seen"},
      {"measurement": "human maximization test result", "setting": "human; literature data, Jimbo (1983)", "result": "positive reaction"}
    ]},
    {"compound": "CCCC(O)C(CC)CO", "note": "(stereo not shown) [ethyl hexanediol]", "values": [
      {"measurement": "adverse effects", "setting": "[4]; basis of 1991 EPA cancellation of registrations", "result": "possible adverse effects of the compound on fetal development"}
    ]}
  ]
}
